From patent publication US9808470B2, “Estrogenic components for use in the treatment of neurological disorders” (UNIVERSITE DE LIEGE, priority 2012, dated 2017) come the findings set out here.

Test [1] relates to doublecortin (DCX). Description: Ex.3 neuroprotective HIE rat model: doublecortin staining. Type of test: in vivo. How it is done: The sections were heated in 10 mmol/L citrate buffer (pH 6.0) at 100° C. for 10 minutes. Endogenous peroxidase activity was blocked with 3% hydrogen peroxide for 10 minutes and after a second blocking with 5% normal goat serum, the sections were incubated with anti-doublecortin (DCX) antibody, diluted 1:1000 (rabbit polyclonal antibody; Abcam, Cambridge, UK) and anti-vascular endothelial growth factor (VEGF) antibody, diluted 1:100 (mouse monoclonal antibody; Abcam, Cambridge, UK) overnight at 4° C. After rinsing, Alexa Fluor® goat anti-rabbit, diluted 1:1000 and Alexa Fluor® goat anti-mouse, diluted 1:1000 (Invitrogen Inc., Ghent, Belgium) were added and sections were incubated 1 h at room temperature. Mounting medium containing 4′,6-diamidino-2-phenylindole (DAPI) for fluorescent studies was used (Vector Laboratories). Samples were analyzed with the aid of a microscope (Olympus Vanox AHBT3, Olympus), and the ImageJ software (NIH). The percentage of positively stained cells was quantified as a sum of positively stained either DCX or VEGF cells divided by the total number of DAPI positive cells expressed in percentage.
Newborn rat pups were assigned to one of the following 6 groups from postnatal day 4: Sham group (n=24), Vehicle group (n=14), E4 1 mg/kg/per day group (n=11), E4 5 mg/kg/per day group (n=14), E4 10 mg/kg/per day group (n=14), or E4 50 mg/kg/per day group (n=19). From postnatal day 4, rat pups were intraperitoneally injected either vehicle (Vehicle group) or E4 (1, 5, 10, or 50 mg/kg/per day in accordance to the E4 group assignment) or neither vehicle nor E4 (Sham group). At day 7, 30 minutes after last injection, animals were anesthetized with isoflurane (induction, 3.0%; maintenance, 1.5%), and the rat pups from Vehicle and E4 groups passed through surgery encompassing left common carotid artery double ligation and cut. After the procedure, the pups were returned to their dams and were allowed to recover for 1 hour. The pups were then placed in the humidified hypoxic in vivo cabinet (CoyLab, Grass Lake, Mich., USA). Hypoxia was produced by the inhalation of 11%-8% of oxygen balanced by nitrogen at decreased concentration of oxygen for 20 minutes, followed by inhalation of 8% oxygen and 92% nitrogen at constant concentration for 35 minutes. All the manipulations were performed at 37° C. The Sham group went through similar procedures without left common carotid artery ligation followed by hypoxia nor injection. Rat pups recovered with their dams and reared normally until being sacrificed at postnatal day 14.

Test [2] relates to intact cells in hippocampus and cortex. Description: Ex.8 therapeutic HIE rat model: intact cell counting. The format is in vivo. As for the experimental part: To study the therapeutic effect of estetrol, newborn rat pups were assigned to one of the following 14 groups at postnatal day 7 (FIG. 23(B)): Sham group (n=12), Vehicle (n=15), 5 mg/kg/day E4 (n=11), 10 mg/kg/day E4 (n=11), 5 mg/kg/day E4+1.6 mg/kg/day PROG (n=11), 10 mg/kg/day E4+1.6 mg/kg/day PROG (n=11), 5 mg/kg/day E4+16 mg/kg/day PROG (n=11), 10 mg/kg/day E4+16 mg/kg/day PROG (n=13), 5 mg/kg/day E4+136 ng//kg/day E2 (n=11), 10 mg/kg/day E4+136 ng/kg/day E2 (n=11), 5 mg/kg/day E4+1.6 mg/kg/day PROG+136 ng/kg/day E2 (n=12), 10 mg/kg/day E4+1.6 mg/kg/day PROG+136 ng/kg/day E2 (n=11), 5 mg/kg/day E4+16 mg/kg/day PROG+136 ng/kg/day E2 (n=11), 10 mg/kg/day E4+16 mg/kg/day PROG+136 ng/kg/day (n=12) groups. […] After surgery, the pups were returned to their dams and allowed to recover for 1 hour. The pups were then placed in a humidified hypoxic in vivo cabinet (CoyLab). Hypoxia was produced by the inhalation of 11%-8% of oxygen balanced by nitrogen at decreased concentration of oxygen for 20 minutes, followed by inhalation of 8% oxygen and 92% nitrogen at constant concentration for 35 minutes. All the manipulations were performed at 37° C. Upon retrieval from the hypoxia chamber the rat pups were injected ip once either by vehicle (vehicle group) or by in accordance to the group assignment. The animals from the sham group went through similar procedures but proceeded neither left common carotid artery ligation and cut followed by hypoxia nor injections. Rat pups recovered with their dams until being sacrificed at postnatal day 14 (FIG. 24(B)). […]
Intact cell counting was performed on hematoxylin-eosin-stained sections of the rat pups brains at magnification 400× in 3 fields of the respective brain area. […] The sections were analyzed with the aid of a microscope (Olympus BX51, Olympus, Tokyo, Japan), an image scanner (DotSlide Digital Virtual Microscopy, Olympus, Germany) and ImageJ software (NIH, US). […]

Each structure is given as a SMILES string.

With `C[C@]12CC[C@@H]3c4ccc(O)cc4CC[C@H]3[C@@H]1[C@@H](O)[C@@H](O)[C@@H]2O` [E4, 1,3,5(10)-estratrien-3,15α,16α,17β-tetrol], the “percentage of DCX positively stained cells” value in test [1] (5 mg/kg E4 ip PND4-7 before HI, CA1) was 35.2±3.309%; in test [1] (5 mg/kg E4 ip PND4-7 before HI, CA2/CA3), 30.3±3.7%; in test [1] (10 mg/kg E4 ip PND4-7 before HI, CA1), 34.1±6.664%; in test [1] (10 mg/kg E4 ip PND4-7 before HI, DG) it was 55.8±5.658%; in test [1] (10 mg/kg E4 ip PND4-7 before HI, cortex) it was 52.1±7.762%. Moreover, the “number of intact cells” value in test [2] (10 mg/kg/day E4, CA1) is 57.30±5.19; in test [2] (10 mg/kg/day E4, cortex), 46.60±1.83. Further, the “intact cell counting per visual field” value in test [2] (10 mg/kg/day E4, DG) amounted to 150.20±9.43.
